Data as given in patent publication US20050164306A1, “Methods for screening for a compound useful in the treatment or prevention of lymphocytic disorders, for inhibiting lymphocite activity and preventing or treating lymphocytic disorders” (priority 2002, published 2005).
“Also recorded” adds a separate entry of the source. Where two headings read alike, the source gives them in different places.

What was measured:
Jurkat cells = test: Cell growth and proliferation of Jurkat cell lines; assay type: cell-based, human; conditions: inhibitor added at day 0; cell counts on day 5
Procedure: T cell Jurkat is an acute T cell leukemia obtained from the peripheral blood of human. It was purchassed from ATCC and was grown and maintained in RPMI™. 1640 medium containing 10% FBS, 2 mM L-glutamine adjusted to contain 1.5 g/L sodium bicarbonate, 4.5 g/L glucose, 10 mM HEPES and 1.0 mM sodium pyruvate. To evaluate the effect of the different inhibitors of NTPDases on the growth of Jurkat cells, BGO 136, erythrosin, 8 Bus ATP, AMP and β-γ-Me ATP were added in the RPMI™ 1640 medium in presence of cells at day=0. Cells counts and viability of cells were determined on day=5.

NTPDase [1] = conditions: ATP and ADP as substrate; read-out: Ki (mixed type of inhibition); cited from earlier work
NTPDase [2] = test: NTPDase assay on intact human peripheral blood lymphocytes (PBL); assay type: biochemical
Procedure: Human lymphocytes were obtained from peripheral venous blood of normal and healthy medication-free volunteers. Fresh blood collected in EDTA glass tubes was layered into Histopaque™-1077 (a solution of Ficoll™ and sodium diatrizoate adjusted to a density of 1.077, Sigma, USA) and centrifuged at 400 g for exactly 30 min, at room temperature. During centrifugation, erythrocytes and granulocytes were aggregated by Ficoll™ and rapidly sedimented, whereas lymphocytes remained at the plasma interface. Plasma (the upper layer) was carefully removed to prevent disturbance of the buffy coat. The latter fraction rich in lymphocytes was recovered with a pasteur pipette and washed twice with RPMI™ 1640 medium by centrifugation, for 10 min, at 250×g. The final pellet was suspended in fresh RPMI™ 1640 medium supplemented with 2 mM L-glutamine, 10% foetal bovine serum inactivated at 56° C. for 30 min, and antibiotics: penicillin […], streptomucin 100 ug/ml and amphotericin 2.5 ug/ml. Cells were counted with the hemacytometer. […] The cell preparation named PBL (for peripheral blood lymphocyte) was immediately used for NTPDase assays and for mitogenic responses to stimulators.
Prior to the assays, human normal lymphocytes as well as leukemic cell lines, were washed three times with phosphate-free saline in 95 mM NaCl, 1 mM CaCl2, 2 mM MgCl2 and 45 mM Tris —HCl buffer (pH 7.4). Enzyme assays were carried out at 37° C. in 1 ml of the following assay medium: 95 mM NaCl, 5 mM KCl, 1 mM CaCl2, 2 mM MgCl2, 5 mM glucose, 0.05% BSA, 5 mM tetramisole and 45 mM Tris-HCl (pH 7.5). The reaction was started by adding the substrate (200 uM of ATP or ADP) and stopped with 250 ul of the Malachite green reagent. Controls were run with the enzyme added after the Malachite green reagent. Where indicated, 10 mM sodium azide (NaN3) or 1 mM, 5 mM and 10 mM of BGO 136 were added directly to the assay mixture. Inorganic phosphate was estimated according to Baykov et al.^(1) and enzyme activity was either expressed as nmoles of Pi released/min/mg of protein which corresponds to mUnits^(2) or as nmoles Pi/min/10^6 cells. Where indicated, lymphoid cells were lysed by three freeze thaw cycles in saline buffer and protein was measured with the method of Bradford using bovine serum albumin as a standard (3).

[3] = system: human peripheral blood lymphocytes (PBL); test: Mitogen stimulation and proliferation assay (3H-thymidine uptake); assay type: cell-based; conditions: for lymphocytic activity including proliferation and humoral response (in words): normal T lymphocyte
Procedure: A thymidine uptake assay was used to evaluate the effect of […] inhibitors on the proliferative activity of normal lymphocytes. Cell suspensions of fresh human peripheral blood lymphocytes (PBL) were resuspended in RPMITM 1640 medium supplemented with 10% foetal bovine serum at a concentration of 2×10^6/ml. Aliquots of […] were plated on a […] (96-well) and stimulated with 10 ug/ml of (Con-A) or 40 ug/ml of (LPSTM) at a final volume of 0.2 ml/well. ConATM and LPSTM were used to stimulate preferentially T cells and B cells, respectively. […] After an additional a 4 h incubation at 37° C., cells were collected with a cell harvester and ^3H thymidine incorporation was measured in triplicate samples by liquid scintillation counting.

mice [4] = test: In vivo antibody production assay (humoral response to BSA, ELISA)
Procedure: Immunity mice were primed with antigen by an intraperitoneal injection of BSA as a T-dependent antigen. Briefly, BSA was resuspended in PBS (pH 7.2) and emulsified in the same volume of complete Freund's adjuvant (CFA). 30 ug BSA in […] PBS was given to each mouse. Four groups of ten mice were immunized. • Group 1: mice were injected i.p. with BSA alone with emulsified in (CFA) Group: Ag. • Group 2: mice were injected i.p. with BSA plus BGO 136 (400 mM) in […] PBS, emulsified in (CFA) or erythrosin B (0.25 g/Kg) • Group 3: mice were injected i.p. with BSA plus BGO 136 (800 mM) in […] PBS, emulsified in (CFA) or erythrosin B (0.5 g/Kg) • Group 4: mice were treated with BSA in presence of the inhibitor emulsified in (CFA). These mice received various i.p. doses of BGO 136 400 mM in 0.1 ml of normal PBS or erythrosin B 0.25 g/Kg, 2 doses/week are given as a maintenance dose. (group named DM=maintenance dose)
These initial immunizations (i.p.) were followed by two subsequent immunizations with emulsions of BSA alone or in presence of BGO136 400 mM or 800 mM, in incomplete Freund's adjuvant. Five days after each immunization, blood was collected from each animal, sera was analysed by an ELISA assay.
Flat-bottomed microtiter plate were coated with BSA (5 ug/ml) in NaHCO3/Na2CO3 50 mM (pH 9.6) at 37° C. for 2 h. Plates were washed three times with (PBS buffer, pH 7.4, 0.5 ml/L Tween-20) and then blocked with 400 ul of milk per well overnight, at 4° C. Diluted sera specimens were added (100 ul/well) and incubated for 2 h at 37° C. After thorough washing, wells were incubated with 100 ul of goat-anti-mouse IgG conjugated with peroxydase for 2 h at 37° C. followed by several washes. TMB substrate solution (100 ul/well), (42 mM TMB in DMSO, 0.1 M citric acid, Na2HPO4 0.2 M and H2O2 30%) was added. Color development was allowed to proceed for approximately 15 to 30 min, at room temperature. Reaction was terminated by adding 30 ul of 4N H2SO4. Optical density was read at 450 nm.

mice [5] = test: Graft vs. host reaction, spleen weight after cell transplant (Bundick model); assay type: in vivo; conditions: for splenomegaly: spleen weighed 21 days after injection of parents' spleen cells; for suppression %: suppression of splenomegaly, no treatment = 100, positive = 0
Procedure: Mice were injected their parents' spleen cells. 21 days later, their spleen was weighed. Activation of Th2 (T helper cells) cells. The treatment groups are cyclosporin, BGO, and AMP. […] The “No treatment group” is constituted of normal mice. The “positive” group is constituted of mice having undergone spleen tissue transplantation and having been injected with the carrier only (PBS™) without inhibitor. […] The spleen of all mice was then removed and weighed. The weigh of treated mice was then compared with that of the “No treatment” mice.

SMILES | Jurkat cell proliferation (in words) (Jurkat cells) | effect on NTPDase activity (in words) (NTPDase [2]) | proliferation induced by ConA (in words) ([3]; ConA-stimulated PBL) | lymphocytic activity including proliferation and humoral response (in words) [3] | splenomegaly (mice [5]) | suppression % (mice [5]) [%] | further results
O=S(=O)(O)c1ccc2c(O)cc(S(=O)(=O)O)cc2c1 [BGO 136, 1-hydroxynaphtalene-3,6 disulfonic acid] | marked reduction of cell proliferation | decrease the NTPDase activity; also recorded: dose-dependent inhibition | inhibited in a dose-dependent manner | decrease | 4.3 ± 0.29 mg/g of b. weight | 56 | Ki (NTPDase [1]): 380 µM; inhibition of ATPase and ADPase activities (NTPDase [2]; 5 mM): 40%; inhibition of ATPase and ADPase activities (NTPDase [2]; 10 mM): ≥ 50%; proliferation induced by ConA, percent of the positive control values ([3]; ConA-stimulated PBL, 10 mM): about 10%; inhibition of LPS-induced proliferation (in words) ([3]; LPS-stimulated PBL): much less pronounced; proliferation of non-activated lymphocytes (3H-Thymidine incorporation in DNA) ([3]; unstimulated PBL): did not affect; tolerance: toxic or allergic reactions (mice [4]; during administration (two months)): No toxic or allergic reactions were observed; effect on levels of albumin antibodies (in words) (mice [4]; repeated injections (group DM) versus single dose): even more efficient; reduction of levels of albumin antibodies (mice [4]; single dose 800 mM i.p.): ≤ 50%; efficiency in preventing spleen growth following transplantation, versus cyclosporine (mice [5]): more efficient than cyclosporine; transplanted spleens versus positive control mice (in words) (mice [5]; ANOVA): significantly smaller
Nc1ncnc2c1ncn2[C@@H]1O[C@H](COP(=O)(O)OP(=O)(O)CP(=O)(O)O)[C@@H](O)[C@H]1O [β-γ-Me ATP, beta-gamma methylene ATP] | less pronounced but significant effect | inhibited in a dose-dependent manner; also recorded: decrease the NTPDase activity | reduced cell proliferation | decrease |  |  | 
O.O=C([O-])c1ccccc1-c1c2cc(I)c(=O)c(I)c-2oc2c(I)c([O-])c(I)cc12.[Na+].[Na+] [erythrosin B] | marked reduction of cell proliferation | dose-dependent inhibition; also recorded: decrease the NTPDase activity | dose-dependent inhibition | decrease |  |  | levels of antibodies to albumin (in words) (mice [4]; especially with multiple injections (group DM)): significant decrease
Nc1ncnc2c1ncn2[C@@H]1O[C@H](COP(=O)(O)O)[C@@H](O)[C@H]1O [AMP, adenosine 5′-monophosphate] | marked reduction of cell proliferation |  |  |  | 6.7 ± 0.82 mg/g of b. weight | 8 | 
CCCCSc1nc2c(N)ncnc2n1C1OC(COP(=O)(O)OP(=O)(O)OP(=O)(O)O)C(O)C1O (stereo not drawn) [8 BUS-ATP] | marked reduction of cell proliferation | decrease the NTPDase activity | reduced cell proliferation | decrease |  |  | 
CCCCSc1nc2c(N)ncnc2n1[C@@H]1O[C@H](COP(=O)(O)O)C(O)[C@@H]1O (stereo partly drawn) [8 BUS-AMP] |  | pronounced dose-dependent inhibition |  | decrease |  |  | effect on NTPDase activity (in words) (NTPDase [2]; listed as 8 Bus AMP): decrease the NTPDase activity
